Source: ChEMBL document CHEMBL1201862, “PubChem BioAssay data set” (2004)
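Where inhibition never reached the appropriate level, the endpoint shown equals the highest concentration tested. Otherwise, values were interpolated linearly from a five-concentration, 48-hour dose response in 96-well plates. GI50 is the concentration that inhibits growth by half.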 Calls of active or inactive are those of the source. Cut-off read from the data, not from the text of the source: active = GI50 up to about 1.1 µM and inactive = higher.

Assays:
Assay in all cases: inhibition of tumour cell growth, NCI panel, 48 h
786-0 = test system: 786-0
DMS-114 = test system: DMS-114
HCC 2998 = test system: HCC 2998
HL-60 = test system: HL-60
HOP-62 = test system: HOP-62
HOP-92 = test system: HOP-92
IGROV-1 = test system: IGROV-1
LOX IMVI = test system: LOX IMVI
MOLT-4 = test system: MOLT-4
NCI-H23 = test system: NCI-H23
NCI-H460 = test system: NCI-H460
NCI-H522 = test system: NCI-H522
OVCAR-5 = test system: OVCAR-5
OVCAR-8 = test system: OVCAR-8
SK-MEL-5 = test system: SK-MEL-5
SK-OV-3 = test system: SK-OV-3
SW-620 = test system: SW-620
U-251 = test system: U-251
UACC-257 = test system: UACC-257

Measured: GI50

CC(C)(C)C1CCC2(CC1)c1[nH]c3ccccc3c1C1(CCC(C(C)(C)C)CC1)c1[nH]c3ccccc3c12 (centres undefined)
inactive: 786-0 7.08 µM | DMS-114 25.9 µM | HCC 2998 > 100 µM | HL-60 > 100 µM | HOP-62 > 100 µM | HOP-92 > 100 µM | IGROV-1 > 100 µM | LOX IMVI > 100 µM | MOLT-4 > 100 µM | NCI-H23 > 100 µM | NCI-H460 > 100 µM | NCI-H522 > 100 µM | OVCAR-5 > 100 µM | OVCAR-8 > 100 µM | SK-MEL-5 > 100 µM | SK-OV-3 > 100 µM | SW-620 39.4 µM | U-251 87.3 µM | UACC-257 > 100 µM

CC1CC(c2ccc([N+](=O)[O-])cc2)=Nc2ccccc2S1 (centres undefined)
inactive: 786-0 15.3 µM | DMS-114 17.4 µM | HCC 2998 19.1 µM | HL-60 7.45 µM | HOP-62 44.9 µM | HOP-92 29 µM | IGROV-1 18 µM | LOX IMVI 6.89 µM | MOLT-4 18.1 µM | NCI-H23 15.8 µM | NCI-H460 27.1 µM | NCI-H522 20.3 µM | OVCAR-5 23.9 µM | OVCAR-8 25.9 µM | SK-MEL-5 21.5 µM | SK-OV-3 17.1 µM | SW-620 15.6 µM | U-251 15.2 µM | UACC-257 18.7 µM

C1CCN(C2OC3C(COC3N3CCCCC3)OC2OC2CCO[C@@H]2N2CCCCC2)CC1 (some centres undefined)
inactive: 786-0 34.7 µM | DMS-114 14.3 µM | HCC 2998 > 100 µM | HL-60 8.47 µM | HOP-62 36.2 µM | HOP-92 11 µM | IGROV-1 79.3 µM | LOX IMVI 75 µM | MOLT-4 15.8 µM | NCI-H23 21.1 µM | NCI-H460 > 100 µM | NCI-H522 12.4 µM | OVCAR-5 > 100 µM | OVCAR-8 17.5 µM | SK-MEL-5 25.2 µM | SK-OV-3 32.6 µM | SW-620 81.3 µM | U-251 30.5 µM | UACC-257 20.8 µM

O=C1C2Cc3ccccc3CN2C(=O)N1CN1CCN(CN2C(=O)C3Cc4ccccc4CN3C2=O)CC1 (centres undefined)
inactive: 786-0 > 100 µM | DMS-114 > 100 µM | HCC 2998 > 100 µM | HL-60 > 100 µM | HOP-62 > 100 µM | HOP-92 > 100 µM | IGROV-1 > 100 µM | LOX IMVI > 100 µM | MOLT-4 > 100 µM | NCI-H23 > 100 µM | NCI-H460 > 100 µM | NCI-H522 > 100 µM | OVCAR-5 > 100 µM | OVCAR-8 > 100 µM | SK-MEL-5 > 100 µM | SK-OV-3 > 100 µM | SW-620 > 100 µM | U-251 > 100 µM | UACC-257 > 100 µM

N#Cc1cccc(/C=N/C23CC4CC(CC(C4)C2)C3)c1
inactive: 786-0 > 100 µM | DMS-114 > 100 µM | HCC 2998 > 100 µM | HL-60 21.3 µM | HOP-62 > 100 µM | HOP-92 > 100 µM | IGROV-1 > 100 µM | LOX IMVI > 100 µM | MOLT-4 99.1 µM | NCI-H23 > 100 µM | NCI-H460 > 100 µM | NCI-H522 > 100 µM | OVCAR-5 > 100 µM | OVCAR-8 > 100 µM | SK-MEL-5 > 10 µM | SK-OV-3 > 100 µM | SW-620 > 100 µM | U-251 > 100 µM | UACC-257 > 100 µM

CN(C)C(=C1C(Br)=C(Br)C(Br)=C1Br)N(C)C
inactive: 786-0 > 100 µM | DMS-114 > 100 µM | HCC 2998 > 100 µM | HL-60 46.3 µM | HOP-62 > 100 µM | HOP-92 > 100 µM | IGROV-1 > 100 µM | LOX IMVI 21.5 µM | MOLT-4 > 100 µM | NCI-H23 > 100 µM | NCI-H460 > 100 µM | NCI-H522 17.5 µM | OVCAR-5 > 100 µM | OVCAR-8 > 100 µM | SK-MEL-5 > 100 µM | SK-OV-3 > 100 µM | SW-620 83.8 µM | U-251 > 100 µM | UACC-257 > 100 µM
